Results published in US6647980B1, “Method for administration of active substances to the olfactory region” (priority 1997, dated 2003).

Test: Dynamic viscosity, Brookfield Digital Viscometer
Assay type: physicochemical
Conditions: dye preparation
Procedure: The viscosity of the preparations were determined by means of a Brookfield Digital Viscometer, model DV-I+, version 2.0, at 25° after stabilisation for 30 min.

- Viscosity (cP) (NaCMC conc. 0 (water)): 1 (water) cP
- Viscosity (cP) (NaCMC conc. 0.2 (w/v), with Tween 40 and methyl paraoxybenzoate): 22.0 cP
- Viscosity (cP) (NaCMC conc. 0.5 (w/v), with Tween 40 and methyl paraoxybenzoate): 85.2 cP
Substance: brilliant blue dye
